# Source: patent US20020028851A1, “Guanylhydrazones and their use to treat inflammatory conditions” (priority 1994, published 2002)
# Read-outs that look alike come from different tables or passages of the source.
# Columns and labels:
# RAW 264.7 cells [1] = assay: Whole cell inhibition assay for urea output; assay type: cell-based, murine; details: for IC50: interpolated, γIFN+LPS-activated RAW 264.7, 18 hours, read-out: I.C.50 (in parenthesis), inhibition of urea production; for urea % suppression of induced production: γIFN+LPS, 18 hours
# Experimental: (§1) RAW 264.7 cells are plated in microculture wells at 1×10^6/ml in RPMI 1640 with 10% FBS and otherwise standard culture conditions and allowed to adhere for 5 hours. They are then activated with 25 U/ml γIFN and 0.1 μg/ml LPS in the presence of test inhibitors. The urea concentration present in the supernatant media, after 18 hours of culture, is determined by a colorimetric blood urea nitrogen diacetylmonoxime assay performed on an aliquot of the culture supernatant (Sigma Chem. Co., St. Louis, Mo.) and inhibition is expressed as the percentage urea compared to that of a parallel control culture treated identically except that the concentration of added inhibitor is zero.
# (§2) Various concentrations of the test compounds are included in the media of the stimulated RAW 264.7 cells in culture. The concentration of urea and/or nitrite after 18 hours of activated culture is determined and compared to the uninhibited control value obtained from at least one parallel culture. The fractional reduction is calculated for each concentration of inhibitor and the IC50 (concentration giving 50% reduction) is interpolated. Compounds were dissolved in media with mild heat (60° C.). Those with limited solubility were dissolved in base. The concentration of stock solutions of those compounds which were not completely soluble was determined by OD280.
# RAW 264.7 cells [2] = assay: Whole cell inhibition assay for NO (nitrite) output; assay type: cell-based, murine; details: γIFN+LPS, 18 hours
# Experimental: as §1
# The production of nitrite is determined by assay of the same tissue culture supernatant by means of a calorimetric assay. Briefly, 4 parts of test solution containing 1% (w/v) sulfanilamide, 0.1% naphthylethylenediamine di-HCl (Griess Reagent), 2.5% H3PO4 and one part media are mixed, incubated for 10 minutes and the absorbance at 560 nm determined. The nitrite concentrations are interpolated from reference curves prepared using NaNO2.
# as §2
# (§3) This section describes experiments that measure the concentration of Compound No. 14 needed to inhibit arginine uptake and NO output. The techniques employed were described in section 7.1 supra.
# RAW 264.7 cells [3] = assay: Whole cell inhibition assay for arginine uptake; assay type: cell-based, murine; details: γIFN+LPS, 8 hours
# Experimental: In the embodiment described in the working example herein, a test population of cells was cultured for about 3 hours so that the cells became firmly adherent. Various concentrations of the potential inhibitors were then added to parallel cultures. One hour later the macrophage stimulators, e.g. including, but not limited to LPS and γIFN, were added. Eighteen hours later the cells were washed in a warm balanced salt solution supplemented with glucose. Carrier-free radiolabelled arginine was added; after 5 minutes, active uptake of arginine was stopped by washing the cell three times with buffer, chilled to 0° C., containing 10 mM unlabeled arginine to displace any externally bound label. The contents of the washed cells are solubilized in 100 μl of formic acid and counted by standard techniques.
# RAW 264.7 cells are plated in standard 96-well microculture plates at a concentration of 10^5/well and allowed to adhere for from 2 hours to overnight. The medium is then replaced with medium containing the compound to be tested. One hour later, the medium is supplemented so as to contain 25 U/ml γIFN and 0.1 μg/ml LPS and the cultures incubated a further. The cells are then rinsed twice in HEPES- buffered Krebs salt solution with 0.1% glucose. Carrier-free tetra-^3H-arginine is added to each well (2.5 μCi/well with specific activity of […]) and the active uptake of arginine is allowed to continue for a 5 minute period after which the cells are rapidly cooled to 0° C. by lavage with iced saline containing 10 mM unlabeled arginine to displace any externally bound label. The contents of the washed cells are solubilized in 100 Al of formic acid and counted by standard techniques. In subsequent experiments to determine the acitivity of the inhibitors, incubations were performed for 8 hours.
# as §3
compound,measurement,setting,value
COc1ccc(C=NNC(=N)N)cc1OCCCCCOc1cc(C=NNC(=N)N)ccc1OC.Cl.Cl,melting point,,195 to 198 °C
"CC(=NNC(=N)N)c1cc(C(C)=NNC(=N)N)cc(C(C)=NNC(=N)N)c1 [Compound 1, 1,3,5-triacetylbenzene tris(guanylhydrazone)]",IC50,"RAW 264.7 cells [1]; Mus musculus, RAW264.7",10 µM
same,urea % suppression of induced production,RAW 264.7 cells [1]; dose 10 μM,60%
same,urea % suppression of induced production,RAW 264.7 cells [1]; dose 25 μM,100%
same,no2/no3 % suppression of induced production,RAW 264.7 cells [2]; dose 10 μM,58%
same,no2/no3 % suppression of induced production,RAW 264.7 cells [2]; dose 25 μM,72%
same,arginine transport % suppression of induced peak,RAW 264.7 cells [3]; dose 1 μM,0%
same,arginine transport % suppression of induced peak,RAW 264.7 cells [3]; dose 10 μM,20%
same,arginine transport % suppression of induced peak,RAW 264.7 cells [3]; dose 25 μM,40%
CC(=O)c1ccc(NC(=O)NCCN(CCNC(=NNC(=N)N)Nc2ccc(C(C)=O)cc2)CCNC(=NNC(=N)N)Nc2ccc(C(C)=NNC(=N)N)cc2)cc1.Cl.Cl.Cl (hydrate or solvate),melting point,,224 to 225 °C (dec.)
"CC(=NNC(=N)N)c1ccc(O)c(O)c1.Cl [Compound 7, 2-[(3,4-dihydroxyphenyl)-ethylidyne]hydrazinecarboximidamide hydrochloride]",urea % suppression of induced production,RAW 264.7 cells [1]; dose 10 μM,23%
same,urea % suppression of induced production,RAW 264.7 cells [1]; dose 100 μM,35%
same,urea % suppression of induced production,RAW 264.7 cells [1]; dose 1 mM,40%
same,urea % suppression of induced production,RAW 264.7 cells [1]; dose 2 mM,55%
same,urea % suppression of induced production,RAW 264.7 cells [1]; dose 10 mM,100%
same,IC50,RAW 264.7 cells [1],2000 µM
CC(=NNC(=N)N)c1cc(NC(=O)c2ccccc2)cc(C(C)=NNC(=N)N)c1.Cl.Cl,melting point,,268 to 272 °C
CC(=NNC(=N)N)c1cc(NC(=N)NC(=N)N)cc(C(C)=NNC(=N)N)c1.Cl.Cl.Cl,melting point,,294 to 297 °C
"Cl.Cl.N=C(N)NN=C(CCC(=NNC(=N)N)c1ccccc1)c1ccccc1 [Compound 20, 2,2′-(1,4-diphenyl-1,4-butanediylidene)bishydrazinecarboximidamide dihydrochloride]",IC50,"RAW 264.7 cells [1]; Mus musculus, RAW264.7",300 µM
same,urea % suppression of induced production,RAW 264.7 cells [1]; dose 10 μM,16%
same,urea % suppression of induced production,RAW 264.7 cells [1]; dose 50 μM,19%
same,urea % suppression of induced production,RAW 264.7 cells [1]; dose 200 μM,38%
same,urea % suppression of induced production,RAW 264.7 cells [1]; dose 400 μM,100%
same,no2/no3 % suppression of induced production,RAW 264.7 cells [2]; dose 10 μM,0%
same,no2/no3 % suppression of induced production,RAW 264.7 cells [2]; dose 50 μM,0%
same,no2/no3 % suppression of induced production,RAW 264.7 cells [2]; dose 200 μM,15%
same,no2/no3 % suppression of induced production,RAW 264.7 cells [2]; dose 400 μM,84%
same,melting point,,285 to 286 °C
"CC(=O)c1cccc(NC(CCCC(=NNC(=N)N)Nc2cccc(C(C)=O)c2)=NNC(=N)N)c1.Cl.Cl [Compound 12, N,N′-bis(3-acetylphenyl)pentanediamide bis(amidinohydrazone) dihydrochloride]",melting point,,187 to 191 °C
CC(=O)c1cc(NC(=O)NCCN(CCNC(=NNC(=N)N)Nc2cc(C(C)=NNC(=N)N)cc(C(C)=NNC(=N)N)c2)CCNC(=NNC(=N)N)Nc2cc(C(C)=NNC(=N)N)cc(C(C)=NNC(=N)N)c2)cc(C(C)=O)c1.Cl.Cl.Cl.Cl.Cl.Cl.Cl (hydrate or solvate),melting point,,245 to 246 °C (dec.)
"CC(=NNC(=N)N)c1ccc(-n2ccnc2)cc1.Cl [Compound 6, 2-([(1H-imidazol-1-yl)-1,4-phenylene]ethylidyne)hydrazinecarboximidamide hydrochloride]",urea % suppression of induced production,RAW 264.7 cells [1]; dose 50 μM,0%
same,urea % suppression of induced production,RAW 264.7 cells [1]; dose 100 μM,40%
same,urea % suppression of induced production,RAW 264.7 cells [1]; dose 1 mM,100%
same,IC50,RAW 264.7 cells [1],250 µM
CC(=O)c1cccc(NC(=NNC(=N)N)c2cc(C(=NNC(=N)N)Nc3cccc(C(C)=O)c3)cc(C(=NNC(=N)N)Nc3cccc(C(C)=O)c3)c2)c1.Cl.Cl.Cl (hydrate or solvate),melting point,,270 to 275 °C (dec.)
"CC(=NNC(=N)N)c1ccc(NC(=O)Nc2ccc(C(C)=NNC(=N)N)cc2)cc1 [Compound 8, 4,4′-diacetyldiphenylurea bis(guanylhydrazone)]",urea % suppression of induced production,RAW 264.7 cells [1]; dose 50 μM,76%
same,urea % suppression of induced production,RAW 264.7 cells [1]; dose 500 μM,100%
same,IC50,RAW 264.7 cells [1],50 µM
CC(=O)c1ccc(NC(=O)NCCCN(CCCNC(=NNC(=N)N)Nc2ccc(C(C)=O)cc2)CCCNC(=NNC(=N)N)Nc2ccc(C(C)=NNC(=N)N)cc2)cc1.Cl.Cl.Cl (hydrate or solvate),melting point,,209 to 210 °C (dec.)
"CC(=NNC(=N)N)c1cc(NC(=O)CCCC(=O)Nc2cc(C(C)=NNC(=N)N)cc(C(C)=NNC(=N)N)c2)cc(C(C)=NNC(=N)N)c1.Cl.Cl.Cl.Cl [Compound 13, N,N′-bis(3,5-diacetyl-phenyl)pentanediamide tetrakis(amidinohydrazone) tetrahydrochloride]",urea % suppression of induced production,RAW 264.7 cells [1]; dose 10 μM,45%
same,urea % suppression of induced production,"RAW 264.7 cells [1]; dose 25 μM, compound as precipitate",77%
same,urea % suppression of induced production,"RAW 264.7 cells [1]; dose 25 μM, compound dissolved as solution",100%
same,urea % suppression of induced production,RAW 264.7 cells [1]; dose 50 μM,87%
same,urea % suppression of induced production,RAW 264.7 cells [1]; dose 500 μM,100%
same,IC50,RAW 264.7 cells [1],10 µM
same,no2/no3 % suppression of induced production,RAW 264.7 cells [2]; dose 25 μM,43%
same,no2/no3 % suppression of induced production,RAW 264.7 cells [2]; dose 500 μM,52%
same,arginine transport % suppression of induced peak,RAW 264.7 cells [3]; dose 25 μM,19%
same,arginine transport % suppression of induced peak,RAW 264.7 cells [3]; dose 50 μM,7%
same,arginine transport % suppression of induced peak,RAW 264.7 cells [3]; dose 500 μM,93%
"CC(=NNC(=N)N)c1ccc(NC(=O)Nc2cc(C(C)=NNC(=N)N)cc(C(C)=NNC(=N)N)c2)cc1.Cl.Cl.Cl [Compound 9, N-(4-acetylphenyl)-N′-(3,5-diacetylphenyl)urea tris(amidinohydrazone) trihydrochloride]",urea % suppression of induced production,RAW 264.7 cells [1]; dose 1 μM,0%
same,urea % suppression of induced production,RAW 264.7 cells [1]; dose 10 μM,60%
same,urea % suppression of induced production,RAW 264.7 cells [1]; dose 25 μM,100%
same,IC50,RAW 264.7 cells [1],10 µM
same,no2/no3 % suppression of induced production,RAW 264.7 cells [2]; dose 1 μM,0%
same,no2/no3 % suppression of induced production,RAW 264.7 cells [2]; dose 10 μM,53%
same,no2/no3 % suppression of induced production,RAW 264.7 cells [2]; dose 25 μM,71%
same,arginine transport % suppression of induced peak,RAW 264.7 cells [3]; dose 1 μM,14%
same,arginine transport % suppression of induced peak,RAW 264.7 cells [3]; dose 10 μM,32%
same,arginine transport % suppression of induced peak,RAW 264.7 cells [3]; dose 25 μM,68%
CC(=O)c1cc(NC(=O)NCCCN(CCCNC(=NNC(=N)N)Nc2cc(C(C)=NNC(=N)N)cc(C(C)=NNC(=N)N)c2)CCCNC(=NNC(=N)N)Nc2cc(C(C)=NNC(=N)N)cc(C(C)=NNC(=N)N)c2)cc(C(C)=O)c1.Cl.Cl.Cl.Cl.Cl.Cl.Cl (hydrate or solvate),melting point,,250 to 251 °C (dec.)
CC(=O)c1cc(NC(=NNC(=N)N)NCC(C)CCCNC(=NNC(=N)N)Nc2cc(C(C)=NNC(=N)N)cc(C(C)=NNC(=N)N)c2)cc(C(C)=O)c1.Cl.Cl.Cl.Cl (centres unmarked) (hydrate or solvate),melting point,,258 to 259 °C
